Where “and” joins values, the source holds several entries; their conditions need not be identical. Equal values may be shown once. Values belong to the molecule of their own block, whether it stands above or below them.
Key:
[1] = test system: SKNO-1; test: Half-maximal growth inhibition (GI50), SKNO-1; format: cell-based; conditions: Homo sapiens, 240 h, AML, M2, RUNX1-RUNX1T1, read-out: GI50 (nM), day 10
Procedure: (§1) Compounds A, B, C, D, and F were tested against various cell lines to probe their broad utility against cancer. Cortistatin A (CA) was also tested against the cell lines in a head to head fashion.

[2] = test system: MV4; 11; test: Half-maximal growth inhibition (GI50), MV4; 11; format: cell-based; conditions: Homo sapiens, 240 h, AML, M5, MLL-AF4, read-out: GI50 (nM), day 10
Procedure: as §1

[3] = test system: MOLM-14; test: Half-maximal growth inhibition (GI50), MOLM-14; format: cell-based; conditions: Homo sapiens, 240 h, AML, M5, MLL-AF9, read-out: GI50 (nM), day 10
Procedure: as §1

[4] = test system: HEL; test: Half-maximal growth inhibition (GI50), HEL; format: cell-based; conditions: Homo sapiens, 240 h, AML, erythroleukemia, JAK2V617F, read-out: GI50 (nM), day 10
Procedure: as §1

[5] = test system: MKPL1; test: Half-maximal growth inhibition (GI50), MKPL1; format: cell-based; conditions: Homo sapiens, 240 h, AML, M7, read-out: GI50 (nM), day 10
Procedure: as §1

[6] = test system: OCI-AML2; test: Half-maximal growth inhibition (GI50), OCI-AML2; format: cell-based; conditions: Homo sapiens, 240 h, AML, M4, DNMT3A R635W, read-out: GI50 (nM), day 10
Procedure: as §1

[7] = test system: K562; test: Half-maximal growth inhibition (GI50), K562; format: cell-based; conditions: Homo sapiens, 240 h, CML, BCR-Abl, read-out: GI50 (nM), day 10
Procedure: as §1

[8] = test system: Human AML cell line MV4;11; test: MV4;11 disseminated leukemia model (bioluminescence); format: in vivo, NSG mice; conditions: for Efficacy Rank Day 15: each compound at its own dose/schedule, data from 3 separate studies
Procedure: The in vivo anti-leukemic activity of Compounds A, B, C, D, and F was tested at the indicated doses and treatment schedules. The doses were chosen based on the compounds tolerability profile (i.e. CA was dosed at 0.16 mg/kg because higher doses caused weight loss or other tolerability issues outlined in Example 6). Human AML cell line MV4;11 expressing mCherry and luciferase were injected into NSG mice. Upon measurement of leukemia cell engraftment, treatment was initiated. Body weight and bioluminescence were measured. It has previously been shown (Shair, Nature 2015) that bioluminescence corresponds to leukemia burden. […] Moreover there was no appreciable advantage between IV or PO dosing observed.

[9] = in vivo; conditions: male, CD-1, mouse, ip, 0.16 mg/kg
Procedure: (§7) Formulation correction for salt content was not required for this study. Materials were vortexed and sonicated at room temperature following addition of vehicle. The solutions were maintained at ambient temperature stirring in the dark for at least 30 minutes prior to dose administration. The formulations were then vortexed and sonicated briefly to help ensure solubility.
(§8) Mice were selected from the Testing Facility's rodent colony. The animals were enrolled in the study based on acceptable health as determined by Testing Facility personnel on the day of test article administration. Animals were held in environmental acclimation for at least 48 hours (±6 hours) prior to dosing. Animals were maintained at temperatures between 16-26° C. (62-78° F.) with the humidity range between 30-70%. Animals in all groups were fasted overnight and food was returned 4 hours following dosing. Water was provided ad libitum throughout the study.
(§9) Whole blood samples for plasma were either collected from each animal by either direct vein puncture of the submandibular vein (survival blood collection) or by cardiac puncture following euthanasia with CO2 (terminal blood collection). […] Following collection, whole blood was placed into a tube containing K2EDTA and immediately placed on wet ice until processed for plasma. Whole blood samples were centrifuged at 2200×g for 10 minutes in a refrigerated centrifuge (5±3° C.) to isolate plasma. The samples were transferred to individual polypropylene containers and immediately placed on dry ice before storage at −70±10° C. until analysis. Plasma collected from undosed spare animals was pooled and analyzed as well.
(§10) Once collected the mouse plasma studies were quantitated using LCMS/MS spectroscopy to determine the concentration of compound. […] Eight calibration standards containing the analyte and internal standard imipramine were prepared and analyzed at the beginning and at the end of the sequence. A calibration curve was generated and sample concentrations calculated using the Quantitation software MassHunter.

[10] = target: hERG (human ether-à-go-go-related gene) potassium channel (Homo sapiens, UniProt Q12809); test: in vitro
Procedure: (§2) The in vitro effects of compounds A, B, C, D, E, and F on the hERG (human ether-à-go-go-related gene) potassium channel current (a surrogate for IKr, the rapidly activating, delayed rectifier cardiac potassium current) expressed in mammalian cells were evaluated at room temperature using the QPatch HT (Sophion Bioscience A/S, Denmark), an automatic parallel patch clamp system. The test articles were evaluated at 1 μM, 3 μM, […] and 30 μM. Each test article concentration was tested in at least three cells. The duration of exposure to each test article concentration was a minimum of 3 minutes.

[11] = target: hERG potassium channel (Homo sapiens, UniProt Q12809); test: in vitro; conditions: human
Procedure: as §2

[12] = TurboSol solubility evaluation in physiological saline; format: physicochemical; conditions: HB-PS+0.3% DMSO
[13] = target: T1, Tachykinin NK1 (Homo sapiens, UniProt P25103); test: Panlab assay, Tachykinin NK1; format: binding
T1 construct: Eurofins Panlabs
Procedure: (§3) Compounds A, B, C, and D were tested in Panlab assays to evaluate potential off-target activity using standard assay kits. Methods employed in these studies have been adapted from the scientific literature to maximize reliability and reproducibility. Reference standards were run as an integral part of each assay to ensure the validity of the results obtained.
(§4) IC50 values were determined by a non-linear, least squares regression analysis using MathIQ™ (ID Business Solutions Ltd., UK). Where inhibition constants (Ki) are presented, the Ki values were calculated using the equation of Cheng and Prusoff (Cheng, Y., Prusoff, W. H., Biochem. Pharmacol. 22:3099-3108, 1973) using the observed IC50 of the tested compound, the concentration of radioligand employed in the assay, and the historical values for the KD of the ligand (obtained experimentally at Eurofins Panlabs, Inc.). Where presented, the Hill coefficient (nH), defining the slope of the competitive binding curve, was calculated using MathIQ™.

[14] = target: T2, Opiate μ(OP3, MOP) (Homo sapiens, UniProt P35372); test: Panlab assay, Opiate μ(OP3, MOP); format: binding
T2 construct: Eurofins Panlabs
Procedure: Compounds A, B, C, and D were tested in Panlab assays to evaluate potential off-target activity using standard assay kits. Methods employed in these studies have been adapted from the scientific literature to maximize reliability and reproducibility.
IC50 values were determined by a non-linear, least squares regression analysis using MathIQ™ (ID Business Solutions Ltd., UK). […] Where presented, the Hill coefficient (nH), defining the slope of the competitive binding curve, was calculated using MathIQ™.

[15] = test system: off-targets (Panlabs); test: Panlab off-target assay panel; format: binding; conditions: 10 μM
Procedure: as §3, §4

[16] = target: T3, hERG channel (IKr) (Homo sapiens, UniProt Q12809); test: hERG (IKr) current, PatchXpress 7000A planar voltage clamp; format: cell-based; conditions: human, CHO or HEK293 cells expressing the hERG channel; PatchXpress functional voltage clamp
T3 construct: expressed in transfected cells; host or cells: CHO or HEK293 cells
Procedure: (§5) The objective of this study was to evaluate the in vitro effects of Compound F on three cardiac ion channel currents: IKr, the rapidly activating, delayed rectifier potassium current through hERG channel encoded by human ether-à-go-go-related gene; IKs, the slowly activating, delayed rectifier cardiac potassium channel current encoded by hKCNQ1/hKCNE1; and INa, the human cardiac Na+ channel current encoded by hNav1.5 in CHO or HEK293 cells (Table 7). This functional assay was conducted using higher throughput planar voltage-clamp technology PatchXpress 7000A.
(§6) Signal amplitudes were quantified at steady state during control (vehicle) and in the presence of increasing concentrations of the test compound. Concentration-dependent changes of signal in response to compound were expressed as percent block relative to control (pre-drug/trigger) and are reported as the mean±SEM (standard error) of the indicated number (N) of tested cells/wells. IC50 values were determined where applicable by fitting the averaged concentration-response data (mean±SEM) with a Hill equation.

[17] = target: T4, hKCNQ1/hKCNE1 (IKs) (Homo sapiens, UniProt P51787); test: IKs current, PatchXpress 7000A planar voltage clamp; format: cell-based
T4 construct: expressed in transfected cells; host or cells: CHO or HEK293 cells
Procedure: as §5, §6

[18] = target: T5, hNav1.5 (INa) (Homo sapiens, UniProt Q14524); test: INa current, PatchXpress 7000A planar voltage clamp; format: cell-based
T5 construct: expressed in transfected cells; host or cells: CHO or HEK293 cells
Procedure: as §5, §6

[19] = Tolerability study of Compound F (body weight); format: in vivo, mice
Procedure: Twenty seven mice were used for the tolerability study of Compound F. Mice were randomly assigned to various treatment groups with n=3 mice/group. In the low dose group of 0.3 mg/kg Compound F administered IP, mice were re-challenged after 8 days of drug holiday with a higher dose of 20 mg/kg Compound F, IP. All mice were treated for 7 days unless as indicated below.
Mice were monitored clinically for signs of morbidity and for body weights daily. Mice showing signs of morbidity were euthanized as per study guidelines.

[20] = Pharmacokinetic profile in mice (plasma, LC-MS/MS); conditions: male, CD-1, mouse, plasma, po, 1 mg/kg
Procedure: as §7, §8, §9, §10

[21] = target: hERG (Homo sapiens, UniProt Q12809); test: hERG (IKr) current, PatchXpress 7000A planar voltage clamp; format: cell-based; parameters: expressed in transfected cells; host or cells: CHO or HEK293 cells
Procedure: as §5, §6

[22] = target: T6, Adenosine Transporter (Cavia porcellus, UniProt H0V4R7); test: Panlab assay, Adenosine Transporter; format: binding; conditions: reference standard
T6 sequence (H0V4R7 1-461): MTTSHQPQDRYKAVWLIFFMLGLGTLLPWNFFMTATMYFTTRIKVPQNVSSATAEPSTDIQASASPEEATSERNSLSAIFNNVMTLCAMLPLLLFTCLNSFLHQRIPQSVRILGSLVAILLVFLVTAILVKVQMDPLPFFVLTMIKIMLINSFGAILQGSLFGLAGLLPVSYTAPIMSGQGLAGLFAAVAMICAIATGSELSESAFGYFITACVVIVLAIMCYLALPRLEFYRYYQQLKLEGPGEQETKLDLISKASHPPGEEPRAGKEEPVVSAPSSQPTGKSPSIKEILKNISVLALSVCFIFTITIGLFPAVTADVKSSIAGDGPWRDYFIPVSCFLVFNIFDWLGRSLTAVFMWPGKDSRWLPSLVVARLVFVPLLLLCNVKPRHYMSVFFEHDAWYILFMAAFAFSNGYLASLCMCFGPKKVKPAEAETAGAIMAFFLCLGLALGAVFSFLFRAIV
Procedure: as §3, §4

[23] = Individual Data Points (% Inhibition), hERG

T1 sequence (P25103 whole entry): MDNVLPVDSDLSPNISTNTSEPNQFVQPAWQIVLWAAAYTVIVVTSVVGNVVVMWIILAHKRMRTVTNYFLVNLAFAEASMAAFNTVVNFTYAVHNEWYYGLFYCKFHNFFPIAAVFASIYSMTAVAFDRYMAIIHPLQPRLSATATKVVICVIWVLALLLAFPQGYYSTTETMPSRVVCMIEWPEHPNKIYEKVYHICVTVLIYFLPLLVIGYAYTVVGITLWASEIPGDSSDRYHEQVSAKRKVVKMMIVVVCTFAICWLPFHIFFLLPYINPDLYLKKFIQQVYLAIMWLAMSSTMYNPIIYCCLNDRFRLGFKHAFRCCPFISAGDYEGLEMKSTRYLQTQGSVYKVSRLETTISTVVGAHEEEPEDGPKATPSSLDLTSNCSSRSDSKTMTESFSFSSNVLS
T5 sequence (Q14524 whole entry): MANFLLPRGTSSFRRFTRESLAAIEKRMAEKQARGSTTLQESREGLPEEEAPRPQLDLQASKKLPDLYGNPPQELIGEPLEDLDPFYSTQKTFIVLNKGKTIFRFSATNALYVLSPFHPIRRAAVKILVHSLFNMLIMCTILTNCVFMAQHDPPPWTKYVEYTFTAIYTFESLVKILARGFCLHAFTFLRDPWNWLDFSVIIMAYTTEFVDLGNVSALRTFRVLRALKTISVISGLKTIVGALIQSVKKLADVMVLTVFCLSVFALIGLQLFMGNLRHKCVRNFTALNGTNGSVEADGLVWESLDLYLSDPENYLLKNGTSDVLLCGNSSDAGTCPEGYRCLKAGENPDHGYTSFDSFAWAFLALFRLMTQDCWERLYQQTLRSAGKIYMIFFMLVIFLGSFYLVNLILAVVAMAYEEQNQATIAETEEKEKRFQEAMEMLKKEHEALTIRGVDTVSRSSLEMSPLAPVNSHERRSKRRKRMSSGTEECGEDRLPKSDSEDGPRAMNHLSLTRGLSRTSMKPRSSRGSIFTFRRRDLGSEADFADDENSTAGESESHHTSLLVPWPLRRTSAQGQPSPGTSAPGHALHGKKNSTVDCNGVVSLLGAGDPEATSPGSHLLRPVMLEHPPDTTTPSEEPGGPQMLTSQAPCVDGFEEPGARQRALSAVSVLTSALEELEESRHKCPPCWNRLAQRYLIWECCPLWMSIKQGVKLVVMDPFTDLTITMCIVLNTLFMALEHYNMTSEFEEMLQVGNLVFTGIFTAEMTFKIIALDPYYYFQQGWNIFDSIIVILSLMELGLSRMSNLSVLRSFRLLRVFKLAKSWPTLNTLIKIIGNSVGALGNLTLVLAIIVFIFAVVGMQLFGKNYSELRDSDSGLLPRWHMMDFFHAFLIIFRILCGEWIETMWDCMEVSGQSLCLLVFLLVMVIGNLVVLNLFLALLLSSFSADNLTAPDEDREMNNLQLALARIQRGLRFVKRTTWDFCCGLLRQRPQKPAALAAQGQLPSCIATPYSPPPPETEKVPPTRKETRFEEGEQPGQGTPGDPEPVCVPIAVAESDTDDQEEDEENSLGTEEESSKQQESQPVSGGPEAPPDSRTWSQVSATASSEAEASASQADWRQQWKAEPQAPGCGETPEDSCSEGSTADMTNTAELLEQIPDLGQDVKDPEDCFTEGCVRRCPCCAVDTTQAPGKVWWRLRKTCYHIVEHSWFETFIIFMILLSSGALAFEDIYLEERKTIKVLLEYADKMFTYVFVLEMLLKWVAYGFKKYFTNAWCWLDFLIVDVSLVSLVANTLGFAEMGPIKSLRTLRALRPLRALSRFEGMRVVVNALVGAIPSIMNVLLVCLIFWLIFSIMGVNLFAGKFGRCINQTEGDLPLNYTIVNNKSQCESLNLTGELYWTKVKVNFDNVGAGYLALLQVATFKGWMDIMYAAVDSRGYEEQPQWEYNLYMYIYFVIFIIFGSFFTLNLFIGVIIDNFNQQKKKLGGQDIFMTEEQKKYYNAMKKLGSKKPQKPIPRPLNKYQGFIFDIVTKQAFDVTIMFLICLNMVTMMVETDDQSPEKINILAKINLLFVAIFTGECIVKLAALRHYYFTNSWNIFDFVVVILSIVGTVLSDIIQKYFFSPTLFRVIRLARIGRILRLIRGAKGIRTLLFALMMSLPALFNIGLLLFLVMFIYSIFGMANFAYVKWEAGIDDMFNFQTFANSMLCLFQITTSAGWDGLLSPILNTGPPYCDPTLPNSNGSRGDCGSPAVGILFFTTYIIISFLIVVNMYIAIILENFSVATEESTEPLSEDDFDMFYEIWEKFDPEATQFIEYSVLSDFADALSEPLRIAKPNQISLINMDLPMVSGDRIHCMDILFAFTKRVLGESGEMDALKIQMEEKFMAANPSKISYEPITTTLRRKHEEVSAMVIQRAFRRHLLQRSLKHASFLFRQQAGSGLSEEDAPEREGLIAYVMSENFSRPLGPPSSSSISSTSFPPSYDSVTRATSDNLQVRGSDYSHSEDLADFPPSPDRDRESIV
Sequence of hERG potassium channel (Q12809 whole entry): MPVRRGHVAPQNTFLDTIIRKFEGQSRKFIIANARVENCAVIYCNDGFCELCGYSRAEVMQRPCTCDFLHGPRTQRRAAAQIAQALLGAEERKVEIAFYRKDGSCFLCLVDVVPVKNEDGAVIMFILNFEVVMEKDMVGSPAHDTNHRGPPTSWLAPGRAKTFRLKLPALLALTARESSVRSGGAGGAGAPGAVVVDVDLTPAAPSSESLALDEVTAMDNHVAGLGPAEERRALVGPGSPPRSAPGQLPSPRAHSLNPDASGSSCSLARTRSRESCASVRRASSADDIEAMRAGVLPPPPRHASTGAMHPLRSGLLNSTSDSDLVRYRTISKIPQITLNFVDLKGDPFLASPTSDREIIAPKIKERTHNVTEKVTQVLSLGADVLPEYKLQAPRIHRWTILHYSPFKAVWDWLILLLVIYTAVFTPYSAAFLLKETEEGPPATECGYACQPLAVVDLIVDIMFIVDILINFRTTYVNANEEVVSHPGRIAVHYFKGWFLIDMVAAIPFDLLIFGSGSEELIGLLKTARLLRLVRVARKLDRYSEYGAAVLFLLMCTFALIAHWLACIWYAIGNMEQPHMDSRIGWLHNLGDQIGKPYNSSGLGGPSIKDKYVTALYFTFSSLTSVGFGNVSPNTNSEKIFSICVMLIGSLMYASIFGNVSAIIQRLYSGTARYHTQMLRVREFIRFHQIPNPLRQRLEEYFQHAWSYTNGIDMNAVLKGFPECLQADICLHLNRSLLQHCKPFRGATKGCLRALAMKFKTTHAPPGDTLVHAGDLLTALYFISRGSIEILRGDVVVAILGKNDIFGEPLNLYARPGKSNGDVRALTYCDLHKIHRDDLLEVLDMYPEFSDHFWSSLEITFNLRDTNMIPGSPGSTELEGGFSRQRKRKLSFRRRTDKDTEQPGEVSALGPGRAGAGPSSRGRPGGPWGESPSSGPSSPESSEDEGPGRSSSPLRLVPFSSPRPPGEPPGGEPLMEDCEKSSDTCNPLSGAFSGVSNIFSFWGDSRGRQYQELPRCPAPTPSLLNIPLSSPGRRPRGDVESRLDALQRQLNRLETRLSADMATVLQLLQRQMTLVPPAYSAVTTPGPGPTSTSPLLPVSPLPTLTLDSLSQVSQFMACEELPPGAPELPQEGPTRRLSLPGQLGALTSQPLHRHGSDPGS
Sequence of hERG (Q12809 whole entry): as above

Structure (SMILES): CN(C)[C@H]1C[C@@]23CC[C@@]4(O2)C(=CC[C@]2(C)[C@@H](c5ccc6ccncc6c5)CC[C@H]24)C=C3[C@@H](O)[C@@H]1O [Cortistatin A]
GI50 [1]: < 1 nM
GI50 [2]: < 1 nM
GI50 [3]: < 1 nM
GI50 [4]: > 1000 nM
GI50 [5]: < 1 nM
GI50 [6]: 1 nM
GI50 [7]: > 1000 nM
Efficacy Rank Day 15 [8]: 4
AUC(0-inf) [9]: 134 ng·h/mL

Structure (SMILES): Ic1ccccc1CN[C@@H]1C2CCN(CC2)[C@@H]1C(c1ccccc1)c1ccccc1 (racemic) [L-703,606, reference compound]
nH (Hill coefficient), Tachykinin NK1 [13]: 0.88
IC50 ([13]; reference standard): 3.6 nM
Ki ([13]; reference standard, Cheng and Prusoff): 2.6 nM

Structure (SMILES): C[C@@H](NC(=O)[C@@H](N)Cc1ccc(O)cc1)C(=O)NCC(=O)N(C)[C@@H](Cc1ccccc1)C(=O)NCCO [DAMGO, reference compound]
nH (Hill coefficient), Opiate μ(OP3, MOP) [14]: 0.75

Further lines, with some results ahead:

Average LSU (×1000) ([12]; 1 μM): 3.7 LSU (×1000)
Average LSU (×1000) ([12]; 3 μM): 4.7 LSU (×1000)
Average LSU (×1000) ([12]; 10 μM): 6.4 LSU (×1000)
Average LSU (×1000) ([12]; 30 μM): 8.7 LSU (×1000)
solubility in the TurboSol assay [12]: slightly insoluble at 30 μM
Structure (SMILES): C[C@]12CC=C3C=C4CC[C@@H](N5CCCC5)C[C@]45CCC3(O5)[C@@H]1CC[C@@H]2c1ccc2ccncc2c1 [Compound E]
activity in the hERG assay [10]: sub-micromolar activity
IC50 ([10]; hERG IC50, QPatch HT, room temperature): 562 nM
inhibition at 1 µM [11, 23]: 65.6%
inhibition at 3 µM [11, 23]: 83.4%
inhibition at 10 µM [11, 23]: 93.8%
inhibition at 30 µM [11, 23]: 97.7%
inhibition at 1 µM ([11]; Mean % hERG Inhibition): 67.2%
inhibition at 3 µM ([11]; Mean % hERG Inhibition): 79.2%
inhibition at 10 µM ([11]; Mean % hERG Inhibition): 93%
inhibition at 30 µM ([11]; Mean % hERG Inhibition): 98.8%

number of targets with greater than 50% inhibition ([15]; over 100 Panlab assays): over 20
number of targets with inhibition of greater than or equal to 75% ([15]; over 100 Panlab assays): 12
IC50 [17]: 17000 nM
IKS % Block Mean ± SEM (n) ([17]; 10 μM): 34 ± 7 (5) %
IKS % Block Mean ± SEM (n) ([17]; 30 μM): 68±15% and 68 ± 15 (4) %
GI50 [1]: < 1 nM
GI50 [2]: 1 nM
GI50 [3]: 3 nM
AUC(0-inf) [20]: 524 ng·h/mL
Structure (SMILES): C[C@]12CC=C3C=C4CC[C@@H](N5CCC5)C[C@]45CCC3(O5)[C@@H]1CC[C@@H]2c1ccc2ccncc2c1 [Compound F]
number of targets with ≥75% inhibition ([15]; Safety Panel = 28 binding assays (Eurofins Panlabs)): 12
IC20 [16]: 110 nM
INa at 3 Hz % Block Mean ± SEM (n) ([18]; 3.3 μM, pulsing rate 3 Hz): 30 ± 5 (4) %
INa at 3 Hz % Block Mean ± SEM (n) ([18]; 10 μM, pulsing rate 3 Hz): 60 ± 3 (4) %
inhibition at 30 µM ([18]; 30 μM, pulsing rate 0.2 Hz): 86 ± 2%
INa at 3 Hz % Block Mean ± SEM (n) ([18]; 30 μM, pulsing rate 3 Hz): 98±1% and 98 ± 1 (4) %
IC50 ([18]; pulsing rate 0.2 Hz): 14000 nM
IC50 ([18]; pulsing rate 3 Hz): 6500 nM
body weight loss ([19]; IP 20 mg/kg, 2 of 3 mice): > 15%
average body weight loss ([19]; oral 1 mg/kg): ~10%
body weight loss ([19]; oral 3 mg/kg, 3 of 3 mice, requiring drug holiday): > 15%
body weight loss ([19]; oral 10 mg/kg, not tolerated): > 20%
Fold increase in leukemia burden 15 days after 1st dose ([8]; 1 mpk PO QDx15, NSG mice): 12.3 fold
Efficacy Rank Day 15 [8]: 6
hERG % Block Mean ± SEM (n) ([21]; 0.12 μM): 21 ± 2 (3) %
hERG % Block Mean ± SEM (n) ([21]; 0.37 μM): 51 ± 1 (3) %
hERG % Block Mean ± SEM (n) ([21]; 1.1 μM): 77 ± 0 (3) %
hERG % Block Mean ± SEM (n) ([21]; 3.3 μM): 94 ± 0 (4) %
hERG % Block Mean ± SEM (n) ([21]; 10 μM): 97 ± 0 (4) %
hERG % Block Mean ± SEM (n) ([21]; 30 μM): 102 ± 1 (4) %
IC50 ([21]; PatchXpress functional voltage clamp): 370 nM

IC50 [22]: 0.35 nM
Ki ([22]; Cheng and Prusoff): 0.12 nM
Structure (SMILES): O=[N+]([O-])c1ccc(CSc2ncnc3c2ncn3C2OC(CO)C(O)C2O)cc1 (stereo not drawn) [nitrobenzylthioinosine, Nitrobenzylthioinosine, reference compound]

Reference: patent US20180298024A1, “CORTISTATIN ANALOGS AND USES THEREOF” (President and Fellows of Harvard College, priority 2015, published 2018)
